Experimental data reported in patent US20140163082A1, “PYRAZOLYL COMPOUNDS FOR USE IN REVERSING REACTIVE GLIOSIS” (priority 2011, published 2014).

Tests used:
[1] = system: retinal NV in OIR mouse model; assay type: in vivo
Description: Retinal NV was induced in newborn mice as described previously. Briefly, P7 mice were exposed with their nursing mother, for 5 days [between P7 and P12] to hyperoxic conditions, by incubating them in an airtight chamber [PROOX 110 chamber O2 controller; Biospherix Ltd., Redfield, N.Y.] ventilated by a mixture of O2 and air to a final oxygen fraction of 75±2%. These incubation conditions induced vaso-obliteration and subsequent cessation of vascular development in the capillary beds of the central retina. At P12, the mice were allowed to recover in normal room air conditions and maintained for another 5 days [till P17], the day in which peak disease occurs. A condition of relative hypoxia resulted between P12 and P17, and extensive retinal NV developed in 100% of the mice. Age-matched animals with the hyperoxia-exposed groups were maintained identically, except they were exposed to room air […], 79% N2] for the entire duration of the experiment. All animals were examined and sacrificed on the same days.
A group of hyperoxia-exposed animals [n=15] were injected intravitreally [into both eyes] at P12 and P15 with 3 μl of YC-1 [100 μM] [drug-treated group]. Another group of hyperoxiaexposed mice [n=15] were injected intravitreally [into both eyes] at P12 and P15 with 3 μl of DMSO [0.2% [v/v]] [mock-treated group]. Non-treated mice grown under ambient conditions, non-treated hyperoxia-exposed mice, DMSO-treated hyperoxia-exposed mice and YC-1-treated hyperoxia-exposed mice, were all examined at different critical time points for qualitative assessment of the retinal vasculature by fluorescein angiography.
Deep anesthesia was induced by intraperitoneal injection of ketamine [1%], xylazine [0.1%], and sodium chloride [0.9%] in a concentration of 0.1 mL/10 g mouse body weight. Sternotomy was performed, the mice were perfused through the left ventricle with 600 μL of high-molecular-mass [2×106 Da] FITC-dextran in PBS [50 mg/ml], which was allowed to circulate for 2 minutes before the animals were euthanatized and the eyes enucleated and the flat mounts were prepared. Subsequent to retinal extraction, all retinas were fixed in 4% paraformaldehye for 24 hrs at 4° C. A dissecting microscope was used to dissect the cornea with a circumferential limbal incision, followed by removal of the lens and vitreous. Microscissors were used to make four radial incisions of the retinal eyecup in order to prepare retinal flat mounts on glass slides. Flat mounts were immersed in Aquamount mounting medium [Polysciences, Warrington, Pa.], coverslips were carefully placed over the retina, and the edges of the coverslips were sealed.
Images of the perfused retinas were captured with a fluorescence microscope [Zeiss Axiovert 135, Thornwood, N.Y.], and images were captured in a digital format in a 10× and 100× objectives using a digital camera [AxioCam, NY]. The extent of retinal NV was then quantified by Metamorph™ imaging software [Universal Imaging, Sunnyvale, Calif.]. Briefly, the entire retina was outlined to distinguish the total retinal area of each eye. Then, the images were thresholded to emphasize only the FITC-perfused vessels. This permitted the measurement of total BV area of each retina and the percentage of each retina that is engrossed with BVs. The entire mounted retinas were analyzed in a masked fashion [three observers] to minimize sampling bias. The total vascularized area was then normalized to the total retinal area and the percentage of the retina covered by vessels was calculated. The vascular area was quantified by setting a threshold level of fluorescence, above which only vessels were captured [density slicing]. The total surface area of the retina was outlined using the outermost vessel of the arcade near the ora serrata as the border. The central capillary dropout area was quantified from the digital images in masked fashion. […]

[2] = system: R28 cells; assay: Real time RT-PCR analysis, in vitro, R28; assay type: cell-based, rat
Description: A transformed Müller cell line [rMC-1] were grown in cell cultures in DMEM supplemented with 15% FBS, as well as with a fungicide mixture and 0.5% gentamicin in a humidified atmosphere of 5% CO2/95% air. Medium was changed every 2-3 days, and cells were grown to confluence in a 150-mm dish. Cells were split into 60-mm dishes and were used in the experiments when confluent. […] cells are immortalized rat retinal neurosensory/neuoroglial progenitor cells, by transfection with Adenovirus 12S E1A into the neonatal retinal tissue. […] cells express genes characteristic of neurons, as well as functional neuronal properties. […] cells were cultured in DMEM/F12 medium in a 1:1 mixture, supplemented with 5% FBS, 1.5 mM L-glutamine, 7.5 mM sodium pyruvate, 0.1 mM nonessential amino acids, 1×MEM, 0.37% sodium bicarbonate and 10 μg/ml gentamicin. Cells were incubated at 37° C. in the presence of 5% CO2. Human retinal microvascular endothelial cells [[…]][40,000 cells/well] were seeded in a 96-well plate and allowed to adhere overnight and incubated at 37° C. in normoxia. Cells were then cultured in 150 μl of CS-C medium supplemented with 10% FBS and in the presence of 1-100 μM YC-1 or DMSO [0.2%]. Cells were placed in airtight chambers [BioSpherix, Redfield, N.Y.] and the O2 tension was maintained at 1.2% by using Pro-Ox Model 110 O2 regulator [BioSpherix, Redfield, N.Y.]. The chamber was purged with a gas mixture of 5.32% CO2, and 93.48% N2. […] We used the primers summarized in [FIG. 6C] for RT-PCR. Gene-specific molecular beacons and primers were designed to encompass the genes of interest, with beacon's annealing site to overlap with the exon-exon junctions for additional specificity [Beacon Designer 6.0, Premier Biosoft International, Palo Alto, Calif., USA]. Threshold cycle [Ct] values for the different samples were utilized for the calculation of gene expression fold change using the formula 2 to the minus power of delta delta ct. Fold changes in the HIF-1, VEGF, PDGF-B, GFAP and iNOS gene relative to the β-actin endogenous control gene were determined by the following equation: fold change=2-Δ[ΔC T], where change in threshold cycle [ΔCT]=CT [gene of interest]-CT [β-actin] and Δ [ΔCT]=ΔCT [treated]-ΔCT [untreated].

[3] = system: R28 cells
[4] = R28, hypoxia 48 hours, YC-1 25-100 μM, vs DMSO-treated hypoxic cells

OCc1ccc(-c2nn(Cc3ccccc3)c3ccccc23)o1 [YC-1, 3-(5′-hydroxymethyl-2′-furyl)-1-benzylindazole]
retinal vasodilation (vessel diameters) ([1]; OIR mice, dual injection P12 and P15, P17): inhibited oxygen-injury-induced vasodilation
area of pre-retinal neovascular tufts ([1]; OIR mice, dual injection, P17, vs DMSO-treated group): significantly decreased
tortuosity index of retinal vessels ([1]; OIR mice, dual injection, P17, DMSO 1.059, normoxic 1.019): 1.026±0.001
number of BV tufts/flat mount ([1]; OIR mice, dual intravitreal injection P12 and P15, P17, n=15, DMSO 198): 3.0±1.1
vascularized regions, share of the total size of the retina ([1]; OIR mice, dual intravitreal injections, P17, DMSO 70%, normoxic ~99%): ~97%
capillary-free (avascularized) regions, share of the size of the entire retina ([1]; OIR mice, intravitreal 3 μl YC-1 100 μM at P12 and P15, P17, DMSO-treated 30%): 2.2%±0.1
retinal vaso-obliteration ([1]; OIR mice, vs obliterated areas of DMSO-treated retinas): significantly inhibited the retinal vaso-obliteration
toxic effects on the retinal vasculature ([1]; mouse, in vivo): No obvious toxic effects
PDGF-B mRNA level [2, 4]: significant dose-dependent attenuations
VEGF mRNA level [2, 4]: significant dose-dependent attenuations
iNOS mRNA level [2, 4]: significant dose-dependent attenuations
GFAP mRNA level ([2]; R28, hypoxia, YC-1 25-100 μM, vs DMSO-treated hypoxic cells, normalized to β-actin): significant dose-dependent attenuations
HIF-1α message level ([2]; R28, pre- vs post-YC-1 treatment): no differences
cell viability (DAPI exclusion) [3]: comprised the majority of cells
